Where two headings read alike, the source gives them in different places.
Legend:
Influenza A2 /Aichi/3/68 = experiment: in vitro anti-myxovirus activity, influenza A2 /Aichi/3/68, G-2 cells (% inhibition of hemadsorption); assay type: cell-based, Influenza A2 /Aichi/3/68 (human); conditions: for inhibition at 100 µg/mL: 100 μg/ml; for inhibition at 40 µg/mL: 40 μg/ml; for inhibition at 30 µg/mL: 30 μg/ml; for inhibition at 50 µg/mL: 50 μg/ml; for inhibition at 60 µg/mL: 60 μg/ml; for inhibition at 70 µg/mL: 70 μg/ml; for inhibition at 80 µg/mL: 80 μg/ml; for inhibition at 90 µg/mL: 90 μg/ml; for inhibition at 10 µg/mL: 10 μg/ml; for inhibition at 20 µg/mL: 20 μg/ml
[1] = cytotoxicity in G-2 cells; assay type: cell-based; conditions: human; for CC50: 50% inhibition of cell growth, read-out: Cytotoxicity CTD50; for MNTC: maximal non-toxic concentration, read-out: Cytotoxicity CTD0
Experimental: In preparing the compounds for testing, they were handled aseptically throughout. The compounds were dissolved in a minimum amount of a suitable solvent and the final dilutions were made up to the required volume in a complete culture medium used in assay and in concentration not exceeding the predetermined maximum non-toxic levels.
The cell culture used in all primary in vitro anti-myxovirus assays was an established cell line of the human conjunctiva (G-2 cells). The cytotoxic studies of each of the compounds were performed prior to testing for antiviral activity to determine level of response of the cells to the potentially toxic action of the compounds.

[2] = toxicity of in vitro active anti-myxovirus compounds in mice; conditions: mouse, in vivo, ip, I/P
mice = experiment: as above; conditions: for Maximal non-toxic dose LD0, acute / Maximal non-toxic dose LD0, subacute: I/P; for toxicity compared with Amantadine or compound I: words
Influenza (swine) = experiment: cells; assay type: cell-based; conditions: for inhibition at 30 µg/mL: 30 μg/ml; for inhibition at 80 µg/mL: 80 μg/ml; for inhibition at 100 µg/mL: 100 μg/ml
[3] = Homo sapiens, 100 TCID50, read-out: % Inhibition
[4] = 50% toxic dose LD50, acute, acute
[5] = 50% toxic dose LD50, subacute, subacute

SMILES	inhibition at 100 µg/mL (Influenza A2 /Aichi/3/68; [3])	CC50 [1]	MNTC [1]	LD50 [2, 4]	LD50 [2, 5]	Maximal non-toxic dose LD0, acute (mice)	Maximal non-toxic dose LD0, subacute (mice)	toxicity compared with Amantadine or compound I (mice)	inhibition at 40 µg/mL (Influenza A2 /Aichi/3/68; 100 TCID50)	inhibition at 30 µg/mL (Influenza A2 /Aichi/3/68; Homo sapiens, 100 TCID50)	inhibition at 50 µg/mL (Influenza A2 /Aichi/3/68; Homo sapiens, 100 TCID50)	inhibition at 60 µg/mL (Influenza A2 /Aichi/3/68; Homo sapiens, 100 TCID50)	inhibition at 70 µg/mL (Influenza A2 /Aichi/3/68; Homo sapiens, 100 TCID50)	inhibition at 80 µg/mL (Influenza A2 /Aichi/3/68; Homo sapiens, 100 TCID50)	inhibition at 90 µg/mL (Influenza A2 /Aichi/3/68; Homo sapiens, 100 TCID50)	inhibition at 30 µg/mL (Influenza (swine))	inhibition at 40 µg/mL (Influenza (swine); 40 μg/ml)	inhibition at 50 µg/mL (Influenza (swine); 50 μg/ml)	inhibition at 60 µg/mL (Influenza (swine); 60 μg/ml)	inhibition at 80 µg/mL (Influenza (swine))	also measured
CN(C)C[C@H]1[C@H](N)[C@H]2C[C@@H]1c1ccccc12 (relative stereo) [Compound III, 1,2,3,4-tetrahydro-1,4-methanonaphthalen-exo-3-dimethylaminomethyl-endo-2-amine]	90%	> 100 µg/mL	> 100 µg/mL	750 mg/kg	500 to 750 mg/kg	500 mg/kg	250 mg/kg	far less toxic than either the known antiviral agent Amantadine or compound I													inhibition at 33.3 µg/mL (Influenza A2 /Aichi/3/68; Homo sapiens, 33.3 μg/ml, 100 TCID50): 3%; inhibition at 66.7 µg/mL (Influenza A2 /Aichi/3/68; Homo sapiens, 66.7 μg/ml, 100 TCID50): 87%
NC12CC3CC(CC(C3)C1)C2 [Amantadine, reference compound]		> 100 µg/mL	> 100 µg/mL			175 mg/kg	150 mg/kg		0%	0%	0%	0%	33%	27%	67%	0%	10%	67%	83%	100%	inhibition at 40 µg/mL (Influenza A2 /Aichi/3/68; 56.2 TCID50): 0%; inhibition at 30 µg/mL (Influenza A2 /Aichi/3/68; Homo sapiens, 56.2 TCID50): 0%; inhibition at 50 µg/mL (Influenza A2 /Aichi/3/68; Homo sapiens, 56.2 TCID50): 0%; inhibition at 60 µg/mL (Influenza A2 /Aichi/3/68; Homo sapiens, 56.2 TCID50): 53%; inhibition at 70 µg/mL (Influenza A2 /Aichi/3/68; Homo sapiens, 56.2 TCID50): 83%; inhibition at 80 µg/mL (Influenza A2 /Aichi/3/68; Homo sapiens, 56.2 TCID50): 70%; inhibition at 90 µg/mL (Influenza A2 /Aichi/3/68; Homo sapiens, 56.2 TCID50): 97%; inhibition at 100 µg/mL (Influenza A2 /Aichi/3/68; Homo sapiens, 56.2 TCID50): 87%; inhibition at 100 µg/mL (Influenza A2 /Aichi/3/68; Homo sapiens, 100 TCID50): 43%; % Inhibition (Influenza (swine); 40 μg/ml, listed as AMANTADINE HYDROCHLORIDE): 17%; % Inhibition (Influenza (swine); 50 μg/ml, listed as AMANTADINE HYDROCHLORIDE): 80%; % Inhibition (Influenza (swine); 60 μg/ml, listed as AMANTADINE HYDROCHLORIDE): 90%; inhibition at 70 µg/mL (Influenza (swine); 70 μg/ml): 97%; % Inhibition (Influenza (swine); 70 μg/ml, listed as AMANTADINE HYDROCHLORIDE): 93%; inhibition at 90 µg/mL (Influenza (swine); 90 μg/ml): 100%; inhibition at 100 µg/mL (Influenza (swine)): 100%
NC1C2CCC(c3ccccc32)C1N (stereo not drawn) [Compound VII, 1,2,3,4-tetrahydro-1,4-ethanonaphthalen-exo-3-endo-2-diamine]	83%	> 100 µg/mL	> 100 µg/mL	775 to 800 mg/kg	800 mg/kg	700 mg/kg	700 mg/kg	far less toxic than either the known antiviral agent Amantadine or compound I	30%	20%	67%	80%	57%	60%	80%	90%	97%	100%	100%	100%	inhibition at 40 µg/mL (Influenza A2 /Aichi/3/68; 31.6 TCID50): 87%; inhibition at 10 µg/mL (Influenza A2 /Aichi/3/68; Homo sapiens, 31.6 TCID50): 0%; inhibition at 10 µg/mL (Influenza A2 /Aichi/3/68; Homo sapiens, 100 TCID50): 0%; inhibition at 20 µg/mL (Influenza A2 /Aichi/3/68; Homo sapiens, 31.6 TCID50): 7%; inhibition at 20 µg/mL (Influenza A2 /Aichi/3/68; Homo sapiens, 100 TCID50): 0%; inhibition at 30 µg/mL (Influenza A2 /Aichi/3/68; Homo sapiens, 31.6 TCID50): 60%; inhibition at 50 µg/mL (Influenza A2 /Aichi/3/68; Homo sapiens, 31.6 TCID50): 95%; inhibition at 60 µg/mL (Influenza A2 /Aichi/3/68; Homo sapiens, 31.6 TCID50): 100%; inhibition at 70 µg/mL (Influenza A2 /Aichi/3/68; Homo sapiens, 31.6 TCID50): 100%; inhibition at 80 µg/mL (Influenza A2 /Aichi/3/68; Homo sapiens, 31.6 TCID50): 100%; inhibition at 90 µg/mL (Influenza A2 /Aichi/3/68; Homo sapiens, 31.6 TCID50): 100%; inhibition at 100 µg/mL (Influenza A2 /Aichi/3/68; Homo sapiens, 31.6 TCID50, read-out: % Inhibition): 100%; inhibition at 10 µg/mL (Influenza (swine); 10 μg/ml): 0%; inhibition at 20 µg/mL (Influenza (swine); 20 μg/ml): 56%; % Inhibition (Influenza (swine); 20 μg/ml, listed as 1,2,3,4-TETRAHYDRO-1,4-[…]-EXO-3-ENDO-2-DIAMINE.2HCl): 70%; inhibition at 100 µg/mL (Influenza (swine)): 100%

From patent US3932512A, “Antiviral 1,2,3,4-tetrahydro-1,-alkano naphthalenamine derivatives” (priority 1972, dated 1976)
